From patent US20070093520A1, “Method of treatment of diarrhea-predominant irritable bowel syndrome in a subject” (priority 2005, published 2007)

Test system: diarrhea-predominant IBS subjects
Assay: 3007 Study: open-label 52-week safety study, adverse events and withdrawals
Settings: P/C group

Cc1nccn1C[C@H]1CCc2c(c3cccc4c3n2CCC4)C1=O [cilansetron, (R)-(−)-4,5,6,8,9,10-hexahydro-10-[(2-methyl-1H-imidazol-1-yl)methyl]-11H-pyrido-[3,2,1-jk]-carbazol-11-one]
1 (1%) n (%): TEAE: Penile Disorders NEC (Excl Erection and Ejaculation)* | TEAE: Penile Haemorrhage* | TEAE: Prostate and Seminal Vesicles Infections and Inflammations* | TEAE: Prostatitis*
2 (<1%) n (%): TEAE: Endocrine Disorders | TEAE: Fall | TEAE: Inner Ear Signs and Symptoms | TEAE: Ocular Nerve and Muscle Disorders | TEAE: Oedema Peripheral | TEAE: Palpitations | TEAE: Pelvic Pain NOS | TEAE: Rash Macular | TEAE: Rash NOS | TEAE: Rate and Rhythm Disorders NEC | TEAE: Reproductive Tract Signs and Symptoms NEC
7 (3%) n (%): TEAE: Pain and Discomfort NEC
19 (7%) n (%): TEAE: General Disorders and Administration Site Conditions
18 (6%) n (%): TEAE: Respiratory, Thoracic and Mediastinal Disorders
0 n (%): TEAE: Dysuria | TEAE: Endometriosis* | TEAE: Erythema | TEAE: Erythemas | TEAE: External Ear Disorders NEC | TEAE: Fatigue Aggravated | TEAE: Fluid in Middle Ear | TEAE: Flushing | TEAE: Goitre | TEAE: Gout | TEAE: Haematoma NOS | TEAE: Haematuria | TEAE: Hearing Losses | TEAE: Hepatitis NOS | TEAE: Hepatobiliary Signs and Symptoms | TEAE: Hepatocellular Damage and Hepatitis NEC | TEAE: Hepatosplenomegaly NOS | TEAE: Hernia Repair NOS | TEAE: Hernia Repairs | TEAE: Hot Flushes NOS | TEAE: Hyperlipidaemia NOS | TEAE: Hyperlipidaemias NEC | TEAE: Inner Ear Disorders NEC | TEAE: Insomnia | TEAE: Insomnia Exacerbated | TEAE: Intermenstrual Bleeding* | TEAE: Ischaemic Coronary Artery Disorders | TEAE: Lacrimal Disorders | TEAE: Leiomyoma NOS | TEAE: Leukopenia NOS | TEAE: Leukopenias NEC | TEAE: Lid, Lash and Lacrimal Structural Disorders (Excl Congenital) | TEAE: Lipid Metabolism Disorder NOS | TEAE: Lipid Metabolism and Deposit Disorders NEC | TEAE: Lipoma NOS | TEAE: Meniere's Disease | TEAE: Menstruation with Decreased Bleeding* | TEAE: Middle Ear Disorders NEC | TEAE: Myocardial Infarction | TEAE: Normal Pregnancy, Labour and Delivery* | TEAE: Ovarian Cancer NOS* | TEAE: Ovarian Neoplasms Malignant (Excl Germ Cell)* | TEAE: Paranasal Sinus Hypersecretion | TEAE: Peripheral Vascular Disorders NEC | TEAE: Pregnancy NOS* | TEAE: Pregnancy, Puerperium and Perinatal Conditions | TEAE: Premenstrual Syndrome* | TEAE: Productive Cough | TEAE: Proteinuria | TEAE: Purine Metabolism Disorders NEC | TEAE: Refractive Errors NOS | TEAE: Refractive and Accommodative Disorders | TEAE: Renal Lithiasis | TEAE: Retinal Detachment | TEAE: Retinal Structural Change, Deposit and Degeneration | TEAE: Rhinitis NOS | TEAE: Rhinitis Seasonal | TEAE: Rosacea | TEAE: Rosaceas
3 (1%) n (%): TEAE: Elevated Cholesterol | TEAE: General Signs and Symptoms NEC | TEAE: Hypercholesterolaemia | TEAE: Hyperglycaemia NOS | TEAE: Oedema NEC | TEAE: Paranasal Sinus Disorders (Excl Infections and Neoplasms) | TEAE: Pharyngitis
5 (2%) n (%): TEAE: Eye Disorders
6 (2%) n (%): TEAE: Fatigue | TEAE: Hypertension NOS | TEAE: Neoplasms Benign, Malignant and Unspecified (Incl Cysts and Polyps)
4 (1%) n (%): TEAE: Ear and Labyrinth Disorders | TEAE: Hyperglycaemic Conditions NEC | TEAE: Immune System Disorders | TEAE: Rashes, Eruptions and Exanthems NEC | TEAE: Renal and Urinary Disorders
17 (6%) n (%): TEAE: Psychiatric Disorders
10 (4%) n (%): TEAE: Metabolism and Nutrition Disorders
12 (4%) n (%): TEAE: Reproductive System and Breast Disorders
1 (<1%) n (%): TEAE: Dyspnoea NOS | TEAE: Ear Disorders NEC | TEAE: Ear Pain | TEAE: Eczema | TEAE: Febrile Disorders | TEAE: Fibroma NOS | TEAE: Fluid Intake Increased | TEAE: Food Allergy | TEAE: Gilbert's Syndrome | TEAE: Glucose Tolerance Impaired | TEAE: Glycosuria | TEAE: Hallucination NOS | TEAE: Hallucination, Auditory | TEAE: Hand Fracture | TEAE: Hepatobiliary Disorders | TEAE: Hernia NOS | TEAE: Hernias NEC | TEAE: Hyperkeratoses | TEAE: Hyperkeratosis | TEAE: Hypersensitivity NOS | TEAE: Hypertension Aggravated | TEAE: Hypotension NOS | TEAE: Inborn Errors of Bilirubin Metabolism | TEAE: Influenza Like Illness | TEAE: Ingrowing Nail | TEAE: Inner Ear Infections and Inflammations | TEAE: Irritability | TEAE: Labyrinthitis NOS | TEAE: Lactose Intolerance | TEAE: Laryngeal and Adjacent Sites Disorders NEC (Excl Infections and Neoplasms) | TEAE: Laryngitis NOS | TEAE: Lethargy | TEAE: Libido Decreased | TEAE: Lower Respiratory Tract Signs and Symptoms | TEAE: Lymphadenopathy | TEAE: Lymphangitis and Lymphatic Disorders NEC | TEAE: Menorrhagia* | TEAE: Menstruation Irregular* | TEAE: Menstruation and Uterine Bleeding NEC* | TEAE: Menstruation with Increased Bleeding* | TEAE: Mental Disorders NEC | TEAE: Mental Status Changes | TEAE: Motion Sickness | TEAE: Nail and Nail Bed Conditions (Excl Infections and Infestations) | TEAE: Nasal Congestion and Inflammations | TEAE: Neoplasms Benign Site Unspecified NEC | TEAE: Ocular Disorders NEC | TEAE: Oedema NOS | TEAE: Ovarian Cystadenofibroma* | TEAE: Ovarian Neoplasms Benign* | TEAE: Pain NOS | TEAE: Panic Attack | TEAE: Panic Symptoms | TEAE: Papulosquamous Conditions | TEAE: Partial Vision Loss | TEAE: Perception Disturbances | TEAE: Peripheral Embolism NOS | TEAE: Peripheral Embolism and Thrombosis | TEAE: Polydipsia | TEAE: Polyuria | TEAE: Posterior Capsule Opacification | TEAE: Postnasal Drip | TEAE: Premenopause* | TEAE: Pruritus NEC | TEAE: Pruritus NOS | TEAE: Psoriasis | TEAE: Psychotic Disorder NEC | TEAE: Psychotic Disorder NOS | TEAE: Pyrexia | TEAE: Respiratory Tract Congestion | TEAE: Respiratory Tract Disorders NEC | TEAE: Rhinitis Allergic NOS | TEAE: Seasonal Allergy
